Experimental data as given in patent US7179828B2, “Biologically active neopeltolide compounds” (priority 2003, dated 2007).
Converted amounts (≈) assume the structure as drawn. Like-named read-outs stand apart in the source and are kept apart here.

How the values were obtained:
Format in all cases: cell-based
[1] = test system: Candida albicans (American Type Culture Collection strain 44506); assay: Broth dilution assay (MIC); conditions: read-out: Minimum Inhibitory Concentration (MIC)
Experimental: (§1) The antifungal activity of neopeltolide against Candida albicans (American Type Culture Collection strain 44506) was determined through the use of both agar diffusion and broth dilution assays.
Broth dilution assays were performed as standard 96-well microtiter assays in a total volume of 50 μl with a seeding density of 10^3 cells/ml. The concentration range for neopeltolide ranged from 5 to 0.4 μg/ml as two-fold dilutions.

P388 murine leukemia = assay: In vitro proliferation of P388 tumor cells (MTT); conditions: Mus musculus, 48-hr exposure
Experimental: (§2) Neopeltolide was analyzed as to its effect on the proliferation of A549 human lung adenocarcinoma, NCI-ADR-RES (Formerly MCF-7/ADR) human breast cancer and P388 murine leukemia cell lines. P388 cells were obtained from Dr. R. Camalier, National Cancer Institute, Bethesda, Md., and A549 and NCI-ADR-RES cells were obtained from American Type Culture Collection, Rockville, Md.
(§3) All cell lines are maintained in Roswell Park Memorial Institute (RPMI) medium 1640 supplemented with 100 U/mL penicillin 100 μg/ml streptomycin, 60 μg/ml L-glutamine, 18 mM HEPES, 0.05 mg/mL gentamycin and 10% fetal bovine serum. […]
(§4) A volume of 75 μl of warm growth media containing 5 mg/ml MTT is added to each well, cultures returned to the incubator, and left undisturbed for 3 hours. To spectrophotometrically quantitate formation of reduced formazan, plates are centrifuged (900×g, 5 minutes), culture fluids removed by aspiration, and 200 μl of acidified isopropanol (2 ml concentrated HC/liter isopropanol) added per well. The absorbance of the resulting solutions is measured at 570 nm with a plate reader (Spectra II Tecan Laboratories). […]
(§5) The two standard drug controls (indicated above) are included in each assay to monitor the drug sensitivity of each of the cell lines and IC50 values are determined for each drug-cell combination.

[2] = test system: A549 human lung adenocarcinoma; assay: In vitro proliferation of A549 tumor cells (MTT); conditions: 72-h exposure
Experimental: as §2, §3, §4, §5

[3] = test system: Candida albicans (American Type Culture Collection strain 44506); assay: Agar (disk) diffusion assay
Experimental: as §1
Agar diffusion assays were performed using Sabouraud Dextrose agar plates seeded with the test microbe at 10^5/ml. Disks (6.35 mm, Schliecher and Schuell) were impregnated with 25 μg of neopeltolide, allowed to dry and then placed on the agar surface. After incubation at 37° C. for 24 hours the zones of growth inhibition were determined. A control disk containing 100 IU nystatin was run on the same plate as the neopeltolide: the zone of inhibition was 28 mm.

[4] = test system: NCI-ADR-RES (Formerly MCF-7/ADR) human breast cancer; assay: In vitro proliferation of NCI-ADR-RES tumor cells (MTT); conditions: 72-h exposure, read-out: NCIADR-RES IC50
Experimental: as §2, §3, §4, §5

Q: Which MIC ([1]; C. albicans, 96-well broth dilution, 37° C., 24 hours, complete inhibition of growth) does the source give for `Nc1nc(=O)[nH]cc1F` [5-fluorocytosine, reference compound] here?
A: The MIC was 0.62 µg/mL (≈ 4.8 µM).

Q: Which IC50 (P388 murine leukemia) does the source give for `CCCC1CC(OC)CC(C)CC2CC(OC(=O)/C=C\CCc3coc(/C=C\CNC(=O)OC)n3)CC(CC(=O)O1)O2` (stereo not shown) [Neopeltolide (I), Neopeltolide] here?
A: Its IC50 is 0.56 nM.

Q: And the MIC ([1]; 24 h)?
A: The MIC was 0.625 µg/mL (≈ 1.06 µM).

Q: And the IC50 [2]?
A: Its IC50 is 1.17 nM.

Q: What about the zone of inhibition at 25 µg/disc ([3]; Candida albicans, 24 h, read-out: growth inhibitory zone) of the same compound?
A: Its zone of inhibition at 25 µg/disc is 17 mm.

Q: And the IC50 [4]?
A: The IC50 was 5.1 nM.

Q: `C[C@@H]1[C@H](O)[C@@H](C)/C=C/C=C/CC/C=C/C=C/C=C/C=C/C(O[C@H]2O[C@H](C)[C@@H](O)[C@H](N)[C@@H]2O)CC2O[C@](O)(CC(O)C(O)CCC(O)CC(O)CC(O)CC(=O)O[C@H]1C)CC(O)C2C(=O)O` (stereo partly shown) [nystatin, reference compound] was tested. Which zone of inhibition ([3]; control disk containing 100 IU, C. albicans, 37° C., 24 hours) did it give?
A: Its zone of inhibition is 28 mm.
